Source: US6399599B1, “Substituted 2-oxo-1,4-diazacycloalkanes” (Novartis AG, priority 1999, dated 2002)

System: allergic contact dermatitis (oxazolone, elicitation phase)
Test: Allergic contact dermatitis (ACD), oxazolone
Format: in vivo
Details: female NMRI mice, 24 h after challenge
From the text: ii) Allergic Contact Dermatitis (ACD)
Groups of 8 female NMRI mice are sensitized on the shaved abdomen with 50 —l of oxazolone (Sigma, 2% in acetone) and challenged with 10 —l of 0.2 or 2.0% oxazolone on the inner surface of the right ear 7 days later. The low concentration of oxazolone for induction of the elicitation phase is used for testing compounds on […] whereas the high concentration is applied for […] testing. The unchallenged left ears serve as normal controls and dermatitis is evaluated from the individual differences in pinnal weight, which is taken as a measure of increase in inflammatory swelling 24 h after the challenge. Dermatitis is evaluated in test- and for comparison in control groups. The test groups are treated with the test compounds either orally (twice, 2 h and immediately before challenge), subcutaneously (immediately before challenge) or topically (30 min after challenge at the site of elicitation of the ACD); the controls are treated similarly with the vehicles alone. […] The data of the test-and the vehicle-treated control groups are statistically analysed by ANOVA followed by Dunnet T-test (normal distribution or data) or by H and U-test, respectively. […]

C[C@@H]1CCN([C@H](Cc2cccc3ccccc23)C(N)=O)C(=O)[C@H](c2ccccc2)N1C(=O)Cc1ccc2ncccc2c1 [Example 3, (R)-2-[(3S,5R)-5Methyl-2-oxo-3-phenyl-4-(quinolin-6-yl-acetyl)-[1,4]diazepan-1-yl]-3-(naphthalen-1-yl)-propionamide]
inhibiting effect in allergic contact dermatitis (pinnal weight) (applied topically at a dose of 10 mM): 50% | inhibiting effect in allergic contact dermatitis (pinnal weight) (p.o. at a dose of 2×3 mg/kg): 40%
